Assay results reported in ChEMBL document CHEMBL1141006, “2-Arylimino-5,6-dihydro-4H-1,3-thiazines as a new class of cannabinoid receptor agonists. Part 3: Synthesis and activity of isosteric analogs” (Bioorg Med Chem Lett, 2008).

What was measured:
Mus musculus [1] = test: Analgesic activity against formalin-induced acute pain in po dosed ICR mouse assessed as paw licking for 0 to 5 mins; assay type: functional
Mus musculus [2] = test: Analgesic activity against po dosed ddY mouse assessed as time spent motionless on the ring for 5 mins by ring catalepsy test; assay type: functional
Cannabinoid receptor 1 [3] = target: T1, Cannabinoid receptor 1 (Homo sapiens, UniProt P21554); test: Binding affinity to human CB1 receptor expressed in CHO cells assessed as inhibition of cAMP accumulation; assay type: functional, cell-based
Mus musculus [4] = test: Analgesic activity against formalin-induced inflammatory pain in po dosed ICR mouse assessed as paw licking for 10 to 30 mins; assay type: functional
[5] = Cmax in rat at 2 mg/kg, iv and 3 mg/kg, po; assay type: ADME, organism-based; details: in vivo
[6] = Oral bioavailability in rat at 3 mg/kg; assay type: ADME, organism-based; details: in vivo
[7] = AUC in rat at 3 mg/kg, po; assay type: ADME, organism-based; parameters: dose 3 mg/kg, route oral; details: plasma
Mus musculus [8] = species: Mus musculus; test: Ratio of ED50 for analgesic activity in ddY mouse by ring-catalepsy test to ED50 for analgesic activity against formalin-induced inflammatory pain in ICR mouse; assay type: functional
Cannabinoid receptor 1 [9] = target: T1, Cannabinoid receptor 1; test: Binding affinity to human CB1 receptor
Cannabinoid receptor 2 = Cannabinoid receptor 2 (Homo sapiens, UniProt P34972); test: Binding affinity to human CB2 receptor
Cannabinoid receptor 1 [10] = target: Cannabinoid receptor 1 (Mus musculus, UniProt P47746); test: Binding affinity to mouse CB1 receptor
[11] = Half life in rat at 2 mg/kg, iv and 3 mg/kg, po; assay type: ADME, organism-based; details: in vivo
[12] = Total clearance in rat at 2 mg/kg, iv and 3 mg/kg, po; assay type: ADME, organism-based; details: in vivo

Chain of Cannabinoid receptor 2 (P34972 whole entry): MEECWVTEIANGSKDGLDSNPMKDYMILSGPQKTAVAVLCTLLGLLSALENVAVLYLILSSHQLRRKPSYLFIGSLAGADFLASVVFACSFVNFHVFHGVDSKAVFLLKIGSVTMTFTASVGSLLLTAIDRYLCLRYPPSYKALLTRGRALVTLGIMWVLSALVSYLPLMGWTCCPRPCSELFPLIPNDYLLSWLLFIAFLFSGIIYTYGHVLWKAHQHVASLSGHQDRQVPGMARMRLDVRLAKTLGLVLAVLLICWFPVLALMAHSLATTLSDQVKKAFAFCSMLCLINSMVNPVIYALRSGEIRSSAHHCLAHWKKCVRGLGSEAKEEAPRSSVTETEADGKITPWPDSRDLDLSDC
T1 sequence (P21554 whole entry): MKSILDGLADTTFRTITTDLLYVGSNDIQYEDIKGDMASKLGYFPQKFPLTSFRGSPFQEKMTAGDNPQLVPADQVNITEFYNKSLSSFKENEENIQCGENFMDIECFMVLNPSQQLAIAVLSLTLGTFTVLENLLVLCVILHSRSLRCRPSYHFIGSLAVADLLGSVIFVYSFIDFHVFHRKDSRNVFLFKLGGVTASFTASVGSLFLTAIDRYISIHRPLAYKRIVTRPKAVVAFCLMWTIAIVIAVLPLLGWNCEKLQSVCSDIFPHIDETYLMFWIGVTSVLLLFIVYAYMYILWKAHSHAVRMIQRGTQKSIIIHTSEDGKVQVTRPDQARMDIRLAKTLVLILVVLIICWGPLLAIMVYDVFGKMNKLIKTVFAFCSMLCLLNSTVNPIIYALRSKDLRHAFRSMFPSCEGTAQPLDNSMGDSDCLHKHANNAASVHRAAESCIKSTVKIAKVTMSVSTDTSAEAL
Chain of Cannabinoid receptor 1 (Mus musculus, UniProt P47746) (P47746 whole entry): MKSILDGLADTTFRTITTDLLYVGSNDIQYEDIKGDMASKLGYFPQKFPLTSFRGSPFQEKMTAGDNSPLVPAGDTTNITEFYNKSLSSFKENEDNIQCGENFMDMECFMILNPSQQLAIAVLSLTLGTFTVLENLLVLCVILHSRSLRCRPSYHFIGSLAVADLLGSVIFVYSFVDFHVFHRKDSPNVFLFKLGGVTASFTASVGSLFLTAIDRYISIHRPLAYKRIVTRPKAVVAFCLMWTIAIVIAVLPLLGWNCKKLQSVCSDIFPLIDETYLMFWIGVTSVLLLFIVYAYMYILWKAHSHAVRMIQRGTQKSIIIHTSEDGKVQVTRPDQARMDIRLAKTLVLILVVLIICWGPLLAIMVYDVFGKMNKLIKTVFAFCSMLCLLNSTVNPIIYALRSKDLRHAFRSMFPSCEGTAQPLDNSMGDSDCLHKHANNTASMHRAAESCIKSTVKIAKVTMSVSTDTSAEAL

| Compound | Ki (Cannabinoid receptor 1 [9]) [nM] | Ki (Cannabinoid receptor 2) [nM] | also measured |
| --- | --- | --- | --- |
| CSC(=S)N1CC2(CCCCC2)CS/C1=N\c1cccc2ccccc12 |  |  | ED50 (Mus musculus [1]): 1.5 mg/kg; ED50 (Mus musculus [2]): 19.2 mg/kg; IC50 (Cannabinoid receptor 1 [3]): 10 nM; ED50 (Mus musculus [4]): 1 mg/kg; Cmax [5]: 160 ng/mL; bioavailability [6]: 80%; AUC [7]: 1390 ng·h/mL; Ratio ED50 (Mus musculus [8]): 19.2 |
| CSC(=S)N1CC2(CCCCC2)CO/C1=N\c1cc(C(C)(C)C)on1 | 17 | 4.7 |  |
| COc1ccccc1/N=C1\OCC2(CCCCC2)CN1C(=S)SC | 59 | 0.9 |  |
| CSC(=S)N1CC2(CCCCC2)CO/C1=N\c1cccc2nonc12 | 152 | 6.8 |  |
| CSC(=O)N1CC2(CCCCC2)CO/C1=N\c1cccc2ccccc12 | 31 | 5.8 |  |
| CSC(=S)N1CC2(CCCCC2)CO/C1=N\c1ccccc1 | 515 | 11 |  |
| CSC(=O)N1CC2(CCCCC2)CS/C1=N\c1cccc2ccccc12 | 49 | 1.5 |  |
| CSC(=S)N1CC2(CCCCC2)CO/C1=N\c1cccc2c1CCCC2 | 14 | 1 |  |
| CSC(=S)N1CC2(CCCCC2)CO/C1=N\c1ccc(Cl)c2c1CCCC2 | 76 | 5.8 |  |
| CSC(=S)N1CC2(CCCCC2)CO/C1=N\c1cc(C(C)(C)C)no1 | 0.9 | 1 |  |
| CSC(=S)N1CC2(CCCCC2)CO/C1=N\c1ccc(N(C)C)c2ccccc12 | 4.9 | 6.6 |  |
| CSC(=S)N1CC2(CCCCC2)CO/C1=N\c1ccc(C#N)c2c1CCCC2 | 101 | 1.9 |  |
| CSC(=S)N1CC2(CCCCC2)CO/C1=N\c1ccc(F)c2ccccc12 | 4.9 | 0.8 |  |
| CSC(=S)N1CC2(CCCCC2)CO/C1=N\c1ccc(Cl)c2ccccc12 | 3.4 | 0.9 | ED50 (Mus musculus [1]): 1.9 mg/kg; ED50 (Mus musculus [2]): 25.6 mg/kg; IC50 (Cannabinoid receptor 1 [3]): 8 nM; Ki (Cannabinoid receptor 1 [10]): 0.7 nM; half-life [11]: 2.2 h; ED50 (Mus musculus [4]): 0.64 mg/kg; Cmax [5]: 280 ng/mL; clearance [12]: 14.7 mL/min/kg; bioavailability [6]: 35%; AUC [7]: 1210 ng·h/mL; Ratio ED50 (Mus musculus [8]): 40 |
| CSC(=S)N1CC2(CCCCC2)CO/C1=N\c1ccc(C#N)c2ccccc12 | 9.2 | 1.8 |  |
| CSC(=S)N1CC2(CCCCC2)CO/C1=N\c1nc(C(C)(C)C)cs1 | 1 | 1 |  |
| CSC(=O)N1CC2(CCCCC2)CN/C1=N\c1cccc2ccccc12 | 624 | 155 |  |
| CSC(=S)N1CC2(CCCCC2)CO/C1=N\c1cccc2ccccc12 | 9.3 | 0.9 |  |
| CCC(CC)(CC)c1cc(/N=C2\OCC3(CCCCC3)CN2C(=S)SC)on1 | 1 | 1 |  |
| CSC(=S)N1CC2(CCCCC2)CO/C1=N\c1ccc([N+](=O)[O-])c2ccccc12 | 14 | 2.4 |  |
